Each compound was assayed against Hepatocyte growth factor receptor (Homo sapiens, UniProt P08581) (assay: HTRF Kinase Inhibition Assay). Conditions: pH 7.4; 22 °C.
Procedure: In vitro kinase assays were done to establish IC50 values against recombinant enzymes using homogeneous time-resolved fluorescence (HTRF) assay. Molecules were tested in a 10-point serial dilution using an ATP concentration of two thirds Km values that were determined for the enzymes and calculated using the Eadie-Hofstee and Lineweaver-Burke methods. The fluorescence ratios were read on a Rubystar instrument (BMG labtech Inc.).

| IC50 [nM] | Structure (SMILES) |
| --- | --- |
| 1 | COc1ccc2c(OCc3nnc4ccc(-c5cc(C)cs5)nn34)ccnc2c1 [7-methoxy-4-{[6-(4-methylthiophen-2-yl)-[1,2,4]triazolo[4,3-a]pyridazin-3-yl]methoxy}quinoline] |
| 2 | COc1ccc2c(OCc3nnc4ccc(-c5cccs5)nn34)ccnc2c1 [7-methoxy-4-{[6-(thiophen-2-yl)-[1,2,4]triazolo[4,3-a]pyridazin-3-yl]methoxy}quinoline] |
| 4 | COc1ccc2c(OCc3nnc4ccc(-c5ccsc5)nn34)ccnc2c1 [7-methoxy-4-{[6-(thiophen-3-yl)-[1,2,4]triazolo[4,3-a]pyridazin-3-yl]methoxy}quinoline] |
